From patent EP0038046A2, “Pharmaceutical amides, and preparation, formulations and use thereof” (THE WELLCOME FOUNDATION LIMITED, priority 1980, dated 1981) come the findings set out here.

One assay has as its target T1, enkephalinase Al (Rattus norvegicus, UniProt P07861).
T1 construct: the solubilised enzymes contained in the supernatant separated by DEAE- cellulose column chromatography; Enkephalinase Al was further purified by Sephacryl S.300 chromatography; from tissue; host or cells: rat striatum (Triton X-100 solubilised membrane pellet, DEAE-cellulose and Sephacryl S.300 chromatography)
T1 sequence (P07861 1-750): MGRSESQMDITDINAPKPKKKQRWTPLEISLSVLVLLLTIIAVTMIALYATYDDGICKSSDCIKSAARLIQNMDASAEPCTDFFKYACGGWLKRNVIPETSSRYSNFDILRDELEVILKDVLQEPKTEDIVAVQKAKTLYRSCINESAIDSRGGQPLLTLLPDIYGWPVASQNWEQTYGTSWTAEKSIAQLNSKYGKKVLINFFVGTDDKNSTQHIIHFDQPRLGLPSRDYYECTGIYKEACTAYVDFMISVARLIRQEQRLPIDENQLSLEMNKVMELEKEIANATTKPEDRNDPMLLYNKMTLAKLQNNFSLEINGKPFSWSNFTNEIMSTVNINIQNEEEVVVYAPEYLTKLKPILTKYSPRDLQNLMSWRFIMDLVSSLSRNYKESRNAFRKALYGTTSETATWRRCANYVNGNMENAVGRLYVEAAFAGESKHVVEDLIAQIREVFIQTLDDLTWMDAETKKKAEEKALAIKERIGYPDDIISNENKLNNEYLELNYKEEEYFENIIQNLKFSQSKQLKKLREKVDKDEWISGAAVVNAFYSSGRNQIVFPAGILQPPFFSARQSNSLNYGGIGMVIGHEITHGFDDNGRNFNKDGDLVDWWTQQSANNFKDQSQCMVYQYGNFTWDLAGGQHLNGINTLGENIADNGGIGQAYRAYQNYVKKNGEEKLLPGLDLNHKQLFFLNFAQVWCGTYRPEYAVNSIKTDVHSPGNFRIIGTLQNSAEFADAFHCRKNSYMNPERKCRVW
Kind of assay: Enkephalinase-inhibiting activity, method A (purified enkephalinase A1, 3H-leucine enkephalin hydrolysis to 3H-TGG, TLC separation). The class given is biochemical, Rats. The following applies: leucine enkephalin 5 x 10^-5M, 30°C, IC50 determined graphically, read-out: Approx IC50.

The target of a further assay is T2, enkephalinase (Rattus norvegicus, UniProt P07861).
T2 construct: from tissue; host or cells: rat striatum, crude washed membrane pellet (47,000 g)
T2 sequence (P07861 1-750): T1 sequence (P07861 1-750)
Kind of assay: Enkephalinase-inhibiting activity, method B (striatal membrane homogenate, 3H-leucine enkephalin hydrolysis to 3H-TGG). The assay is classed as biochemical, rats. The following applies: method B (figures marked with an asterisk), 3H-leucine enkephalin 3 x 10^-8M, 22°C, only approximate due to catabolism of 3H-TGG by aminopeptidase(s), read-out: Approx IC50. The protocol: B) The following method is-a modification of the method of Malfroy et al; Nature Vol..276, 30 November 1978 pages 523 to 526. Three rats were killed by decapitation and the striata dissected out on ice. The pooled tissues were homogenised in ice-cold Tris/hydrochloric acid buffer (50 mM, pH 7.60, 10.0 ml) and centrifuged (1000 g, 10 mins). The resulting supernatant was recentrifuged (47,000 g, 20 mins) and the second supernatant discarded. The pellet was washed twice and finally resuspended in buffer as before (9.6 ml) and aliquots (1.9 ml) of this suspension incubated at 22°C. […] At the completion of incubation N hydrochloric acid (50 μl) was added, the mixture heated in a boiling water bath for 15 mins and precipitated material then removed by centrifugation (1500 g, 10 mins). Separation of • (a) unchanged ^3H-leucine enkephalin, • ([…]-OH (^3H-TGG), generated from (a) by enkephalinase, and • (c) ^3H-Tyr-OH, generated from both (a) and (b) by aminopeptidase(s) in the supernatant and the subsequent procedure was carried out as described in method A) above.

For a further assay, the system named is mice. Kind of assay: Antinociceptive activity, acetic acid writhing assay (modified Siegmund et al.). The assay is classed as in vivo. The protocol:
The antinociceptive activity of compound 1 was tested in vivo in mice using the following method:-
A modification of the writhing assay of Siegmund et al (Proc. Soc. exp. Biol. Med., 1957, 95: 727-731) was used. Compound 1 dissolved in saline, or saline alone, was administered intracerebroventricularly (i.c.v.) to groups of 5 mice at the doses shown below.-1 hour or 2 hours later, the mice were injected i.p. with the nonciceptive stimulus, i.e. 0.6% (v/v) aqueous acetic acid. […] An antinociceptive compound will reduce the number of writhes and this may be expressed as a percentage inhibition: [formula]

`CSCC[C@@H](NC(=O)C(CC(=O)O)Cc1ccccc1)C(=O)O` (mixture of isomers) [compound 12, (2R)-2-[(2RS)-2-Benzyl-3-carboxypropanamido]-4-(methylthio)butanoic acid]: the half-maximal inhibitory concentration (IC50) (in general, the concentration at which inhibition is half-maximal) on enkephalinase Al stood at 19 µM.
Same read-out and setting: with `CSCC[C@H](NC(=O)C(CC(=O)O)Cc1ccccc1)C(=O)O` (mixture of isomers) [compound 13, (2S)-2-[(2RS)-2-Benzyl-3-carboxypropanamido]-4-(methylthio)butanoic acid] the figure was 4.3 µM.
Still for that read-out and setting: to `CC(C)C[C@@H](NC(=O)C(CC(=O)O)Cc1ccccc1)C(=O)O` (stereo partly drawn) [compound 11, (2R)-2-[(2RS)-2-Benzyl-3-carboxypropanamido,]-4-methylpentanoic acid] belongs over 500 µM; to `CC(C)C[C@H](NC(=O)C(CC(=O)O)Cc1ccc([N+](=O)[O-])cc1)C(=O)O` (stereo partly drawn) [compound 14], 65 µM; to `CC(C)C[C@H](NC(=O)C(CS)Cc1ccccc1)C(N)=O` (mixture of isomers) [compound 9, (2S)-2-[(2RS)-2-Benzyl-3-mercaptopropanamido]-4-methylpentanamide], 0.33 µM.
Still for that read-out and setting: to `CC(C)C[C@H](NC(=O)[C@@H](CC(=O)O)Cc1ccccc1)C(N)=O` [compound 4, (2S)-2-[(2R)-2-Eenzyl-3-carboxypropanamido]-4-methylpentanamide] belongs over 100 µM; to `CSCC[C@@H](NC(=O)C(CS)Cc1ccccc1)C(=O)O` (stereo partly drawn) [compound 15, (2R)-2-[2RS-2-Benzyl-3-mercaptopropanamido]-4-(methylthio)-butanoic acid], 0.15 µM.
Regarding “(2$)-2-[(2R)-2-Benzyl-3-carboxypropanamido]-4-methylpentanamide [compound 10]”, the IC50 at enkephalinase is over 100 µM.
For `C[C@H](CS)C(=O)N1CCC[C@H]1C(=O)O` [Captopril, 1-(D-3-mercapto-2-methylpropanoyl)-L-proline (R,S), reference compound], at enkephalinase Al, the IC50 came to 3000 µM.
Same read-out and setting: to “(2S)-2-[(2RS)-3-Acetylthio-2-benzylpropanamido]-4-methylpentanoic acid, dicyclohexylamine salt [compound 6]” belongs 11 µM.
For the compound `CC(C)C[C@H](NC(=O)[C@@H](CC(=O)O)Cc1ccccc1)C(=O)O` [compound 2, (2S)-2-[(2R)-2-benzyl-3-carboxypropanamido]-4-methylpentanoic acid], the half-maximal inhibitory concentration (IC50) on enkephalinase is 7.2 µM.
On to `CC(C)C[C@H](NC(=O)C(CC(=O)O)Cc1ccccc1)C(=O)O` (mixture of isomers) [compound 1, (2S)-2-[(2RS)-2-Benzyl-3-carboxypropanamido]-4-methylpentanoic acid], for which the “% inhibition of writhes” value is “slight potentiation” in the assay with mice (5 µg mouse i.c.v., 1h prior to acetic acid); 36% with mice (5 µg mouse i.c.v., 2h prior to acetic acid); 28% with mice (10 µg mouse i.c.v., 1h prior to acetic acid); 48% in the assay on mice (10 µg mouse i.c.v., 2h prior to acetic acid); 32% with mice (20 µg mouse i.c.v., 1h prior to acetic acid); 44% in the assay with mice (20 µg mouse i.c.v., 2h prior to acetic acid). The “% inhibition of writhes” value in the assay on mice (40 µg mouse i.c.v., 1h prior to acetic acid) came out at 75%; with mice (40 µg mouse i.c.v., 2h prior to acetic acid) it was 84%. In addition, the IC50 at enkephalinase Al was found to be 17 µM.
For the compound `CC(C)C[C@H](NC(=O)[C@H](CC(=O)O)Cc1ccccc1)C(=O)O` [compound 3, (2S)-2-[(2S)-2-benzyl-3-carboxypropanamido]-4-methylpentanoic acid], the IC50 at enkephalinase worked out at 4 µM.
